Values quoted from earlier work, collected in US8039023B1, “Composition for relief of menstrual cramps and muscle cramps” (priority 2009, dated 2011).

Tested on: pain and muscle cramping symptoms
Conditions: prior art, various brands, typical

| Compound | time after ingestion to reduced discomfort from pain and muscle cramping symptoms |
| --- | --- |
| CC(=O)Nc1ccc(O)cc1 [acetaminophen] | twenty to forty |
| CC(=O)Oc1ccccc1C(=O)O [aspirin] | twenty to forty |
| CC(C)Cc1ccc(C(C)C(=O)O)cc1 (stereo not drawn) [ibuprofen] | twenty to forty |
